Data as given in PubChem BioAssay AID256 (DTP/NCI, 2004).
“And” between values parts separate entries of the source, which are not always exact repeats. Equal values may be shown once. Toxic doses and inconclusive results are not listed. The calls were made as follows: active = survival T/C of 150% or more; inactive = T/C below 125% in these data.

System: CD2F1 mice, L1210 leukemia ip, survival T/C
Test: NCI In Vivo Anticancer Drug Screen. Data for tumor model L1210 Leukemia (intraperitoneal) in CD2F1 (CDF1) mice
Conditions: higher = longer survival
Outline: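 Each value reflects a quotient of treated over vehicle control outcomes in mice with a transplanted tumor.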

[1] = endpoint: mean survival time, dose: 100.0 mg/kg/injection, schedule: Q01DX009 (ip), vehicle: saline with Tween-80
[2] = endpoint: mean survival time, dose: 200.0 mg/kg/injection, schedule: Q01DX009 (ip), vehicle: saline with Tween-80
[3] = endpoint: mean survival time, dose: 400.0 mg/kg/injection, schedule: Q01DX009 (ip), vehicle: saline with Tween-80

Measured: T/C

CCCC1(c2ccccc2)C(=O)NCNC1=O
inactive: endpoint: median survival time, dose: 25.0 mg/kg/injection, schedule: Q01DX005 (ip), vehicle: Klucel (hydroxypropylcellulose) (HPC) 101 % of control | endpoint: median survival time, dose: 50.0 mg/kg/injection, schedule: Q01DX005 (ip), vehicle: Klucel (hydroxypropylcellulose) (HPC) 97 % of control | endpoint: median survival time, dose: 100.0 mg/kg/injection, schedule: Q01DX005 (ip), vehicle: Klucel (hydroxypropylcellulose) (HPC) 97 % of control | endpoint: median survival time, dose: 200.0 mg/kg/injection, schedule: Q01DX005 (ip), vehicle: Klucel (hydroxypropylcellulose) (HPC) 94 % of control | endpoint: median survival time, dose: 400.0 mg/kg/injection, schedule: Q01DX005 (ip), vehicle: Klucel (hydroxypropylcellulose) (HPC) 104 % of control

CCC[CH2][Sn]1([CH2]CCC)[O]OC(c2ccc(C(=O)OCC)cc2)[O]1 (configuration not stated)
inactive: endpoint: mean survival time, dose: 1.56 mg/kg/injection, schedule: Q04DX002 (ip), vehicle: other 101 % of control | endpoint: mean survival time, dose: 3.13 mg/kg/injection, schedule: Q04DX002 (ip), vehicle: other 116 % of control

COC(=O)CC(=O)CBr
inactive: endpoint: mean survival time, dose: 5.0 mg/kg/injection, schedule: Q01DX001 (ip), vehicle: saline with Tween-80 95 % of control | endpoint: mean survival time, dose: 5.0 mg/kg/injection, schedule: Q01DX009 (ip), vehicle: saline with Tween-80 100 % of control | endpoint: mean survival time, dose: 10.0 mg/kg/injection, schedule: Q01DX001 (ip), vehicle: saline with Tween-80 95 % of control | endpoint: mean survival time, dose: 10.0 mg/kg/injection, schedule: Q01DX009 (ip), vehicle: saline with Tween-80 97 % of control | endpoint: mean survival time, dose: 20.0 mg/kg/injection, schedule: Q01DX001 (ip), vehicle: saline with Tween-80 95 % of control | endpoint: mean survival time, dose: 20.0 mg/kg/injection, schedule: Q01DX009 (ip), vehicle: saline with Tween-80 97 % of control

COc1ccc(C(=O)C(O)c2ccccc2)cc1 (configuration not stated)
inactive: endpoint: mean survival time, dose: 100.0 mg/kg/injection, schedule: Q04DX003 (ip), vehicle: other 97 % of control | endpoint: mean survival time, dose: 200.0 mg/kg/injection, schedule: Q04DX003 (ip), vehicle: other 92 % of control | endpoint: mean survival time, dose: 400.0 mg/kg/injection, schedule: Q04DX003 (ip), vehicle: other 92 % of control

CSc1nc(N)nc2n[nH]nc12
inactive: endpoint: mean survival time, dose: 100.0 mg/kg/injection, schedule: Q01DX001 (ip), vehicle: Klucel (hydroxypropylcellulose) (HPC) 97 % of control | endpoint: mean survival time, dose: 200.0 mg/kg/injection, schedule: Q01DX001 (ip), vehicle: Klucel (hydroxypropylcellulose) (HPC) 105 % of control | endpoint: mean survival time, dose: 400.0 mg/kg/injection, schedule: Q01DX001 (ip), vehicle: Klucel (hydroxypropylcellulose) (HPC) 103 % of control

CCCCCCCCN(C)C
inactive: endpoint: mean survival time, dose: 25.0 mg/kg/injection, schedule: Q01DX009 (ip), vehicle: saline with Tween-80 91 % of control | endpoint: mean survival time, dose: 50.0 mg/kg/injection, schedule: Q01DX009 (ip), vehicle: saline with Tween-80 87 % of control

O=C1OC(CBr)CC1(c1ccccc1)c1ccccc1 (configuration not stated)
inactive: endpoint: mean survival time, dose: 100.0 mg/kg/injection, schedule: Q01DX001 (ip), vehicle: saline with Tween-80 95 % of control | [1] 102 % of control | endpoint: mean survival time, dose: 200.0 mg/kg/injection, schedule: Q01DX001 (ip), vehicle: saline with Tween-80 100 % of control | [2] 100 % of control | endpoint: mean survival time, dose: 400.0 mg/kg/injection, schedule: Q01DX001 (ip), vehicle: saline with Tween-80 100 % of control | [3] 102 % of control

COc1cc(CN(C)CCO)ccc1OCc1ccccc1
inactive: endpoint: mean survival time, dose: 100.0 mg/kg/injection, schedule: Q04DX003 (ip), vehicle: saline with Tween-80 102 % of control | endpoint: mean survival time, dose: 200.0 mg/kg/injection, schedule: Q04DX003 (ip), vehicle: saline with Tween-80 96 % of control

O=C1C=Cc2ccccc2C1=O
inactive: endpoint: mean survival time, dose: 0.63 mg/kg/injection, schedule: Q01DX009 (ip), vehicle: saline 98 % of control | endpoint: mean survival time, dose: 1.0 mg/kg/injection, schedule: Q01DX009 (ip), vehicle: saline 105 % of control | endpoint: mean survival time, dose: 1.25 mg/kg/injection, schedule: Q01DX009 (ip), vehicle: saline 104 % of control | endpoint: mean survival time, dose: 2.0 mg/kg/injection, schedule: Q01DX009 (ip), vehicle: saline 98 % of control | endpoint: mean survival time, dose: 2.5 mg/kg/injection, schedule: Q01DX009 (ip), vehicle: saline with Tween-80 110 % of control | endpoint: mean survival time, dose: 2.5 mg/kg/injection, schedule: Q01DX009 (ip), vehicle: saline 98 % of control | endpoint: mean survival time, dose: 4.0 mg/kg/injection, schedule: Q01DX009 (ip), vehicle: saline 88 % of control

O=C(CC(O)(C(F)(F)F)C(F)(F)F)C(=O)c1ccc([N+](=O)[O-])cc1
inactive: [1] 105 % of control | [2] 94 % of control

COc1ccc(N2C(=O)C=CC2=O)cc1
inactive: endpoint: mean survival time, dose: 6.25 mg/kg/injection, schedule: Q01DX001 (ip), vehicle: saline with Tween-80 103 % of control | endpoint: mean survival time, dose: 12.5 mg/kg/injection, schedule: Q01DX001 (ip), vehicle: saline with Tween-80 88 % of control | endpoint: mean survival time, dose: 25.0 mg/kg/injection, schedule: Q01DX001 (ip), vehicle: saline with Tween-80 94 % of control and 97 % of control

CCOC(=O)C(Cc1ccc(OC)cc1)P(=O)(OCC)OCC (configuration not stated)
inactive: endpoint: mean survival time, dose: 100.0 mg/kg/injection, schedule: Q01DX001 (ip), vehicle: saline 106 % of control | endpoint: mean survival time, dose: 200.0 mg/kg/injection, schedule: Q01DX001 (ip), vehicle: saline 108 % of control | endpoint: mean survival time, dose: 400.0 mg/kg/injection, schedule: Q01DX001 (ip), vehicle: saline 101 % of control

Cc1ccc(NCC(O)C(O)C(O)CO)cc1C (configuration not stated)
inactive: endpoint: mean survival time, dose: 100.0 mg/kg/injection, schedule: Q04DX002 (ip), vehicle: saline with Tween-80 106 % of control | endpoint: mean survival time, dose: 200.0 mg/kg/injection, schedule: Q04DX002 (ip), vehicle: saline with Tween-80 103 % of control

CCCCCCCCCCCCCC[n+]1ccc(C(N)=O)cc1
inactive: endpoint: mean survival time, dose: 12.5 mg/kg/injection, schedule: Q04DX003 (ip), vehicle: saline with Tween-80 107 % of control | endpoint: mean survival time, dose: 25.0 mg/kg/injection, schedule: Q04DX003 (ip), vehicle: saline with Tween-80 107 % of control

COC1CC2C=C(C)/C=C/C=C/C(=O)NC(c3ccccc3)C/C=C/CCC(O)CC(=O)C2=C1O (configuration not stated)
inactive: endpoint: median survival time, dose: 3.12 mg/kg/injection, schedule: Q01DX009 (ip), vehicle: Klucel (hydroxypropylcellulose) (HPC) 108 % of control | endpoint: median survival time, dose: 6.25 mg/kg/injection, schedule: Q01DX009 (ip), vehicle: Klucel (hydroxypropylcellulose) (HPC) 111 % of control | endpoint: median survival time, dose: 12.5 mg/kg/injection, schedule: Q01DX009 (ip), vehicle: Klucel (hydroxypropylcellulose) (HPC) 101 % of control

O=C(C1CC=C2c3ccccc3CCC2C1C(=O)N1CCCCC1)N1CCCCC1 (configuration not stated)
inactive: endpoint: mean survival time, dose: 75.0 mg/kg/injection, schedule: Q01DX001 (ip), vehicle: saline 104 % of control | endpoint: mean survival time, dose: 150.0 mg/kg/injection, schedule: Q01DX001 (ip), vehicle: saline 98 % of control | endpoint: mean survival time, dose: 300.0 mg/kg/injection, schedule: Q01DX001 (ip), vehicle: saline 107 % of control

NC(=O)NC(CC(=O)O)C(=O)O (configuration not stated)
inactive: [1] 96 % of control | [2] 98 % of control | [3] 95 % of control

CN(C)c1ccc(/C=C(\C#N)c2ccc([N+](=O)[O-])cc2)c(Cl)c1
inactive: [1] 97 % of control | [2] 97 % of control | [3] 92 % of control

CC(=O)OC1COC(n2nnc(C#N)c2C#N)C(OC(C)=O)C1OC(C)=O (configuration not stated)
inactive: endpoint: mean survival time, dose: 12.5 mg/kg/injection, schedule: Q01DX005 (ip), vehicle: distilled water + Tween-80 103 % of control and 98 % of control | endpoint: mean survival time, dose: 25.0 mg/kg/injection, schedule: Q01DX005 (ip), vehicle: distilled water + Tween-80 97 % of control and 103 % of control | endpoint: mean survival time, dose: 50.0 mg/kg/injection, schedule: Q01DX005 (ip), vehicle: distilled water + Tween-80 98 % of control and 101 % of control | endpoint: mean survival time, dose: 100.0 mg/kg/injection, schedule: Q01DX005 (ip), vehicle: distilled water + Tween-80 104 % of control and 106 % of control | endpoint: mean survival time, dose: 200.0 mg/kg/injection, schedule: Q01DX005 (ip), vehicle: distilled water + Tween-80 95 % of control

OCc1ccc(Cl)cc1Cl
inactive: [1] 93 % of control | [2] 92 % of control
